We go through twelve compounds from ChEMBL document CHEMBL3044735, “Search of antimycobacterial activities in hybrid molecules with benzopyran skeleton” (2011).

For assay [1], the system named is Mycobacterium tuberculosis. Kind of assay: Antimycobacterial activity against Mycobacterium tuberculosis H37Rv after 30 days by agar microdilution method. The format is functional.
Assay [2] relates to Mycobacterium tuberculosis. Kind of assay: Antimycobacterial activity against Mycobacterium tuberculosis H37Ra after 5 days by two-fold dilution method. As to conditions: 120 h. Type of assay: functional.

Each structure is given as a SMILES string. Converted amounts (≈) assume the structure as drawn.

One may read the MIC as the smallest concentration in the dilution series that meets the test's criterion for growth inhibition. High values mean a less susceptible organism, low ones a more susceptible organism. With `CC1(C)CCc2cc(C(C#Cc3ccccc3)N3CCOCC3)ccc2O1` (stereo unspecified), the MIC is 12.5 µg/mL (≈ 34.6 µM) in assay [1] and greater than 12.5 µg/mL in assay [2]. The matching figures for `CC1(C)CCc2cc(C(C#Cc3ccccc3)N3CCCCC3)ccc2O1` (stereo unspecified): 6.25 µg/mL (≈ 17.4 µM) and greater than 12.5 µg/mL. The matching figures for `CCCCCCC#CC(c1ccc2c(c1)CCC(C)(C)O2)N1CCCCC1` (stereo unspecified): 1.56 µg/mL (≈ 4.24 µM) and greater than 12.5 µg/mL. For `CCCCCC#CC(c1ccc2c(c1)CCC(C)(C)O2)N1CCOCC1` (stereo unspecified), in that order: 3.12 µg/mL (≈ 8.78 µM) and greater than 12.5 µg/mL. In assay [2], `CCCCCCC#CC(c1ccc2c(c1)CCC(C)(C)O2)N1CCOCC1` (stereo unspecified) displayed an MIC greater than 12.5 µg/mL. For the compound `CCOC(=O)[C@H]1N[C@@H](c2ccc(OC)cc2)[C@@H]([N+](=O)[O-])[C@@H]1c1ccc2c(c1)CCC(C)(C)O2` (relative stereo), the minimal inhibitory concentration (MIC) in assay [1] and in assay [2] was greater than 12.5 µg/mL throughout.

On to `CCOC(=O)[C@H]1N[C@@H](c2ccccc2)[C@@H]([N+](=O)[O-])[C@@H]1c1ccc2c(c1)CCC(C)(C)O2` (relative stereo), for which the MIC in assay [1] was 12.5 µg/mL (≈ 29.4 µM); in assay [2], greater than 12.5 µg/mL.

Turning to `CCOC(=O)[C@H]1N[C@@H](c2cccc([N+](=O)[O-])c2)[C@@H]([N+](=O)[O-])[C@@H]1c1ccc2c(c1)CCC(C)(C)O2` (relative stereo), the MIC in assay [1] was 12.5 µg/mL (≈ 26.6 µM); in assay [2], greater than 12.5 µg/mL. As to `CCOC(=O)[C@H]1N[C@@H](c2ccc(OC)cc2)[C@@]2([N+](=O)[O-])C(c3ccc(OC)cc3)Oc3ccccc3[C@@H]12` (relative stereo), the minimal inhibitory concentration (MIC) in assay [1] and in assay [2] was greater than 12.5 µg/mL in each case. For `CCOC(=O)[C@H]1N[C@@H](c2ccc([N+](=O)[O-])cc2)[C@@]2([N+](=O)[O-])C(c3ccc(OC)cc3)Oc3ccccc3[C@@H]12` (relative stereo), the values for the minimal inhibitory concentration (MIC) in assay [1] and in assay [2] were 12.5 µg/mL (≈ 24.1 µM) and greater than 12.5 µg/mL, respectively. In assay [1], `CC[C@@H](CO)NCCN[C@@H](CC)CO` [ETHAMBUTOL] yielded an MIC of 3.25 µg/mL (≈ 15.9 µM). For the compound `NNC(=O)c1ccncc1` [ISONIAZID], in assay [1], 0.75 µg/mL (≈ 5.47 µM) was the least that counted as inhibitory (MIC).
